The values below come from patent US6013621A, “Method of treating psychosis and/or hyperactivity” (The Rockfeller University, priority 1997, dated 2000).

Series [1] relates to thr^34 -phosphorylated DARPP-32. The series can be described thus: phospho-DARPP-32 immunoblot in mouse neostriatal slices. Particulars: for increase in the level of phosphorylated DARPP-32 over the already high basal levels: Ca^2+ -free/EGTA medium; for increase in the level of phosphorylated DARPP-32: vs untreated slices. Format: cell-based. The procedure:
(§1) Preparation and incubation of striatal slices. Male C57BL/6 mice (5-8 weeks old) were sacrificed by decapitation. The brains of the decapitated mice were rapidly removed and placed in ice-cold, oxygenated Krebs-HCO3 -buffer (124 mM NaCl, 4 mM KCl, 26 mM NaHCO3, 1.5 mM CaCl2, 1.25 mM KH2 PO4, 1.5 mM MgSO4 and 10 mM D-glucose, pH 7.4). Coronal slices (350 μm) were prepared using a vibratome. Striatum and nucleus accumbens were dissected from the slices in ice-cold Krebs-HCO3 - buffer. Each slice was placed in a polypropylene incubation tube with 2 ml of fresh Krebs-HCO3 - buffer containing adenosine deaminase (10 μg/ml). The slices were preincubated at 30° C. under constant oxygenation with 95 % O2 /5 % CO2 for 60 minutes. The buffer was replaced with fresh Krebs-HCO3 -buffer after 30 minutes of preincubation. In some experiments, slices were incubated in Ca^2+ -free/EGTA medium (124 mM NaCl, 4 mM KCl, 26 mM NaHCO3, 1.25 mM KH2 PO4, 3.0 mM MgSO4, 10 mM D-glucose and I mM EGTA, pH 7.4) for 20 minutes after 60 minutes of preincubation in Krebs-HCO3 - buffer. Slices were treated with drugs as specified in each experiment.
(§2) Immunoblotting. Frozen tissue samples were sonicated in boiling 1% SDS and boiled for an additional 10 minutes. Small aliquots of the homogenate were retained for protein determination by the BCA protein assay method (Pierce) using bovine serum albumin as a standard. […] The membranes were immunoblotted using a monoclonal antibody (mAb-23; 1:750 dilution) [Snyder et al., (1992)], which is a phosphorylation state-specific antibody raised against a DARPP-32 peptide containing phospho-thr^34, the site phosphorylated by cAMP-dependent protein kinase. A monoclonal antibody (C24-5a; 1:7500 dilution) generated against DARPP-32 (Hemmings and Greengard, 1986), which is not phosphorylation state-specific, was used to estimate the total amount of DARPP-32 in samples.
(§3) Data were analyzed by Student's t -test with significance defined as p<0.05.

The test system is the same in series [2]. In words: phospho-DARPP-32 immunoblot in nucleus accumbens slices. In kind it is cell-based, mouse. As for the experimental part:
as §1, §2, §3
(A western blot detects proteins with antibodies after separation by electrophoresis.)

Series [3] in a line: prepulse inhibition (PPI) of the startle reflex in mice. In kind it is in vivo. From the text: Chambers that are used to assess startle are housed in a sound-attenuated room with a 60 dB(A) ambient noise level. Such chambers consist of a Plexiglass cylinder 8.2 cm in diameter resting on a 12.5×25.5 cm Plexiglass frame within a ventilated enclosure. Acoustic noise bursts are presented via a speaker mounted 24 cm above the animal. A piezoelectric accelerometer mounted below the Plexiglass frame detects and transduces motion within the cylinder. The delivery of acoustic stimuli is controlled by a microcomputer. Startle amplitude is defined as the average of 100 readings. Background noise and all acoustic stimuli are delivered through a speaker (frequency response between 0.5 and 16 Khz) in a chamber. The test session consists of giving: (i) a startle stimulus alone (a 118 dB [A] 40 ms broad band burst); or (ii) no stimulation; or (iii) a startle stimulus preceded 100 ms earlier by a prepulse (a 70 dB [A] 20 ms broad band burst). The amount of PPI is expressed as the percentage decrease in the startle response caused by the presentation of the prepulse. The amount of PPI is calculated using the following equation: [(startle amplitude caused by pulse alone minus startle amplitude caused by pulse preceded by prepulse)/(startle amplitude caused by pulse alone)]×100.

The next series deals with DARPP-32 phosphorylation. In words: DARPP-32 phosphorylation in rat neostriatal slices (FIG. 9). In kind it is cell-based. Particulars: forskolin 10 μM plus FK506 at various concentrations. The procedure: FIG. 9. FK506 increases the level of DARPP-32 phosphorylation in neostriatal slices. Rat neostriatal slices were incubated in the absence (control) or presence of forskolin (10 μM) alone; or forskolin and FK506 using the various concentrations shown.

For series [4] the following is noted: Begley et al., 1990; cited from earlier work.
The conditions of series [5]: treatment with a D1 antagonist, Karlsson et al., 1995; cited from earlier work.

The structures appear in SMILES notation. “And” between values parts separate entries of the source, which are not always exact repeats. Equal values may be shown once. Read-outs that look alike come from different tables or passages of the source.

For the compound `C=C[C@@]1(C)CC(=O)[C@]2(O)[C@@]3(C)[C@@H](O)CCC(C)(C)[C@@H]3[C@H](O)[C@H](OC(C)=O)[C@@]2(C)O1` [forskolin], in series [1], the “increase in the level of phosphorylated DARPP-32 over the already high basal levels” value was 2.04±0.22 fold. Besides, the “increase in the level of phosphorylated DARPP-32 after 5 minutes” value in series [1] (forskolin 10 μM, 8-bromo-cAMP 1 mM) was determined as 20 fold.

Consider `CCN1CCC[C@H]1CNC(=O)c1c(O)c(Cl)cc(Cl)c1OC` [raclopride], for which the “effect on the basal level of phosphorylated DARPP-32” value (“effect on the basal level” for short) in series [1] is given as “slightly increased”. Besides, the “effect on the ability of quinpirole to decrease the SKF82526-stimulated level of phosphorylated DARPP-32” value in series [1] (raclopride 1 μM) was “dramatically reduced”. Besides, the “effect on the ability of quinpirole to decrease the basal level of phosphorylated DARPP-32” value in series [1] (raclopride 1 μM, quinpirole (100 μM)) is on record as “blocked”. Besides, in series [2] (raclopride 1 μM), the “effect on the quinpirole-induced decrease in SKF82526-stimulated DARPP-32 phosphorylation” value is “abolished” and the “effect on the quinpirole-induced decrease in basal DARPP-32 phosphorylation” value was “abolished”. In series [2] (raclopride alone 1 μM), the “effect on the basal level” value is on record as “small increase”.

Take `CCCN1CCC[C@@H]2Cc3n[nH]cc3C[C@H]21` [quinpirole]: the “effect on the basal level” value in series [1] is reported as “decreased”.

As for `CN[C@H](CC(=O)O)C(=O)O` [NMDA], the “effect on the SKF82526-stimulated level of phosphorylated DARPP-32” value in series [1] was “antagonized”. Moreover, the “decrease in SKF 82526-induced phosphorylation of DARPP-32” value in series [1] (discussion of Table 2 data) was 100%.

Consider `C=CC[C@@H]1/C=C(\C)C[C@H](C)C[C@H](OC)[C@H]2O[C@@](O)(C(=O)C(=O)N3CCCC[C@H]3C(=O)O[C@H](/C(C)=C/[C@@H]3CC[C@@H](O)[C@H](OC)C3)[C@H](C)[C@@H](O)CC1=O)[C@H](C)C[C@@H]2OC` [FK506], for which the “effect on the reduction of PPI mediated by quinpirole” value in series [3] (D2 agonist and FK506 concurrently, FK506 intravenously 1 to 1000 nM) is “blocks the reduction of PPI mediated by quinpirole”. Further, the “effect on the degree of PPI, FK506 alone” value in series [3] (FK506 alone) is “can increase the degree of PPI”. The “effect on the level of DARPP-32 phosphorylation” value in the series with DARPP-32 phosphorylation is recorded as “increases DARPP-32 phosphorylation in a dose-dependent manner”. Also, in series [4], the “crossing of the blood-brain barrier” value is “effectively crosses the blood-brain barrier”.

Take `C/C=C(/C)C(=O)O[C@H]1C(C)=C2[C@H]([C@@H]1OC(=O)CCCCCCC)[C@@](C)(OC(C)=O)C[C@H](OC(=O)CCC)[C@@]1(O)[C@H]2OC(=O)[C@@]1(C)O` [thapsigargin]: the “reduction of the level of phosphorylated DARPP-32 seen with SKF82526” value in series [1] (thapsigargin 5 μM added 5 min before SKF82526 1 μM for 5 minutes) came to 46.9±7.7%.

`Oc1ccc(C2CNCCc3c2cc(O)c(O)c3Cl)cc1` (centres unmarked) [SKF82526]: in series [1], the “level of phospho-DARPP-32, TTX (+)” value is recorded as 5.492 ± 0.780; the “level of phospho-DARPP-32, TTX (-)” value worked out at 3.282 ± 0.575; the “increase in the level of phosphorylated DARPP-32 over the already high basal levels” value is recorded as 1.55±0.12 fold. For the same compound, the EC50 in series [1] (Mus musculus, dose-dependent increase, read-out: half-maximal effect on DARPP-32 phosphorylation) is approximately 100 nM. Also, the “increase in the level of phosphorylated DARPP-32” value in series [1] (SKF82526 1 μM alone) was 5.37±0.99 fold and 9.36±2.06 fold. Also, the “level of phospho-DARPP-32, Cyclosporin A (-), 5 min” value in series [1] (Table 1A, SKF82526 1 μM for 5 min, normalized to control) came to 7.14 ± 0.97. For the same compound, in series [1] (Table 1A, SKF82526 1 μM for 30 min, normalized to control), the “level of phospho-DARPP-32, Cyclosporin A (-), 30 min” value is reported as 3.07 ± 0.66. Moreover, the “level of phospho-DARPP-32, Cyclosporin A (+), 5 min” value in series [1] (Table 1A, cyclosporin A 5 μM preincubation 60 min, SKF82526 1 μM for 5 min, normalized to control) stood at 31.6 ± 2.8. The “level of phospho-DARPP-32, Cyclosporin A (+), 30 min” value in series [1] (Table 1A, cyclosporin A 5 μM preincubation 60 min, SKF82526 1 μM for 30 min, normalized to control) is reported as 28.0 ± 3.1. Also, the “level of phospho-DARPP-32, Cyclosporin A (+)” value in series [1] (Table 1C, cyclosporin A 5 μM 60 min, quinpirole 1 μM 5 min preincubation, SKF82526 1 μM 5 min, normalized to control) was 21.1 ± 2.3. Further, in series [1] (Table 1C, quinpirole 1 μM 5 min preincubation, SKF82526 1 μM 5 min, normalized to control), the “level of phospho-DARPP-32, Cyclosporin A (-)” value worked out at 10.61 ± 2.28. Moreover, in series [1] (Table 2, MK801 100 μM from 0 min, NMDA 100 μM or quinpirole 1 μM at 10 min, SKF82526 1 μM at 15 min of 20 min, normalized to SKF82526 alone), the “level of phospho-DARPP-32, MK801 (+)” value is reported as 1.115 ± 0.078. In series [1] (Table 2, NMDA 100 μM or quinpirole 1 μM at 10 min, SKF82526 1 μM at 15 min of 20 min, normalized to SKF82526 alone), the “level of phospho-DARPP-32, MK801 (-)” value was 1.000. Also, in series [2] (SKF82526 1 μM), the “increase in the level of phosphorylated DARPP-32” value was “about 7 fold”.

As to `NC1=N[C@H](O)[C@H]2[C@H]3O[C@]4(O)O[C@@H]([C@@H](O)[C@@]2(N1)[C@@H]4O)[C@]3(O)CO` [TTX, tetrodotoxin], in series [1], the “effect on the SKF82526-stimulated level of phosphorylated DARPP-32” value was “increased”; the “effect on the basal level” value is “increased”; the “effect on the effect of quinpirole on DARPP-32 phosphorylation” value is on record as “failed to reduce”; the “level of phospho-DARPP-32, TTX (+)” value came to 1.000.

With `CN1CCc2cc(Cl)c(O)cc2[C@@H](c2ccccc2)C1` [SCH23390], the “effect on the SKF82526-induced DARPP-32 phosphorylation (D1 antagonist)” value in series [1] is reported as “abolished”.

On to `NCCc1ccc(O)c(O)c1` [dopamine], for which the “increase in the level of phosphorylated DARPP-32” value in series [1] (dopamine 100 μM plus nomifensine 10 μM) is given as 6.64±1.36 fold.

With `CN1CCc2cc(Cl)c(O)cc2[C@H]2c3ccccc3CC[C@@H]21` [SCH39166], the “effect on the symptoms of schizophrenia” value in series [5] was “does not improve but actually worsens the symptoms of schizophrenia”.

`C[C@]12N[C@H](Cc3ccccc31)c1ccccc12` [MK801]: in series [1], the “effect on the D2 receptor (quinpirole) decrease of DARPP-32 phosphorylation” value is recorded as “not blocked”; the “effect on the basal level” value is on record as “increased”; the “level of phospho-DARPP-32, MK801 (+)” value was determined as 0.247 ± 0.044. The “effect on the NMDA antagonism of the SKF82526-induced increase of phosphorylated DARPP-32” value in series [1] (MK801 100 μM, NMDA 100 μM) is “abolished”.
